# Measurements taken from ChEMBL document CHEMBL1147040, “Potent inhibition of HIV-1 replication by novel non-peptidyl small molecule inhibitors of protease dimerization” (J Biol Chem, 2007).
# The source made the active and inactive calls. No cut-off for these calls is given here.
# Columns and labels:
# [1] = target: Protease (Human immunodeficiency virus 1) (UniProt Q9YQ12); experiment: Inhibition of HIV1 protease dimerization in COS7 cells at 1 uM
# [2] = system: Human immunodeficiency virus 1; experiment: Antiviral activity against HIV1 LAI in MT2 cells; type: functional, organism-based; conditions: Human immunodeficiency virus 1, LAI
# Protease = Protease (Human immunodeficiency virus 1, UniProt Q9YQ12); experiment: Inhibition of HIV1 protease
# Chain of Protease (Q9YQ12 whole entry): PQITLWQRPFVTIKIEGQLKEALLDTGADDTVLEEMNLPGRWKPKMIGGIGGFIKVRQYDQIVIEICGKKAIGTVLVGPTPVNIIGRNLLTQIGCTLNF
# Chain of Protease (Human immunodeficiency virus 1) (Q9YQ12 as listed by the source): as the sequence (Q9YQ12 whole entry) above
SMILES,Activity [1],IC50 [2] [nM],Ki (Protease) [nM]
COc1ccc(S(=O)(=O)N(CC(C)C)C[C@@H](O)[C@H](Cc2ccccc2)NC(=O)C[C@H]2CO[C@H]3OCC[C@@H]23)cc1,Active,480,–
Cc1nc(COc2ccc(C[C@H](NC(=O)O[C@H]3CO[C@H]4OCC[C@H]43)[C@H](O)CN(CC(C)C)S(=O)(=O)c3ccc4c(c3)OCO4)cc2)cs1 [BRECANAVIR],Active,0.2,0.0068
CCC[C@@]1(CCc2ccccc2)CC(O)=C([C@H](CC)c2cccc(NS(=O)(=O)c3ccc(C(F)(F)F)cn3)c2)C(=O)O1,–,100,–
CC(C)CN(C[C@@H](O)[C@H](Cc1ccccc1)NC(=O)O[C@H]1CO[C@H]2OCC[C@H]21)S(=O)(=O)c1ccc2c(c1)OCO2,Active,0.4,0.014

# Results, then the molecule that gave them:
Activity [1],IC50 [2] [nM],Ki (Protease) [nM],SMILES
Active,1.4,0.0035,CC(C)CN(C[C@@H](O)[C@H](Cc1ccccc1)NC(=O)O[C@@H]1C[C@@H]2CCO[C@@H]2C1)S(=O)(=O)c1ccc(CO)cc1
Active,3.4,–,CC(C)CN(C[C@@H](O)[C@H](Cc1ccccc1)NC(=O)O[C@H]1CO[C@H]2OCC[C@H]21)S(=O)(=O)c1ccc(N)cc1
Active,0.3,–,COc1ccc(S(=O)(=O)N(CC(C)C)C[C@@H](O)[C@H](Cc2ccccc2)NC(=O)O[C@H]2CO[C@H]3OCC[C@H]32)cc1
Active,5,0.029,CC(C)CN(C[C@@H](O)[C@H](CSc1ccccc1)NC(=O)O[C@@H]1C[C@@H]2CCO[C@@H]2C1)S(=O)(=O)c1ccc(CO)cc1
